Source: publication PMC12207360, “Hyperpolarization Modulation of the T‐Type hCav3.2 Channel by Human Synenkephalin [1–53], a Shrew Neurotoxin Analogue without Paralytic Effects” (Angewandte Chemie (International Ed. in English), 2025)
Marks after values point to notes of the source that are not given here.

Columns and labels:
hCav2.2 = conditions: synthetic BPP2; cited from earlier work
Description: (§1) The short‐tailed shrew Blarina brevicauda is one of the rare venomous mammals that has potent neurotoxins in its saliva and effectively captures prey such as earthworms and small insects.^[ [25] ^] Since Blarina shrew venom causes severe pain in those bitten,^[ [26] ^] it was predicted that the venom targets specific ion channels related to pain and neurotransmission.^[ [27] ^] Recently, we isolated and characterized Blarina paralytic peptides (BPPs) 1 and 2 as major active substances against mealworms (Figure 1a).^[ [28] ^] BPP2 was chemically synthesized based on the gene sequence of the pre ...

[1] = tested on: human T-type voltage-gated calcium channel (hCav3.2); conditions: 0.84 µM; synthetic BPP2; cited from earlier work
Description: as §1

[2] = tested on: mealworms (larva of Zophobas atratus); conditions: cited from earlier work
[3] = tested on: glutamyl endopeptidase (Glu-C); conditions: core N-terminal 1–41 part of BPP2; cited from earlier work
Method: (§2) To determine the connectivity of disulfide bonds in synthetic 2, enzymatic digestion and subsequent fragment peptide analysis were performed. […] However, due to high proteolytic stability, analysis of these degraded products provid ...

trypsin = conditions: core N-terminal 1–41 part of BPP2; cited from earlier work
Method: as §2

[4] = ColabFold-predicted structure, cited from earlier work
Description: To compare the structural properties of hSYN and BPP2, we next examined their three‐dimensional structures using ColabFold^[ [64] ^] (a Google Colab version of AlphaFold2^[ [65] ^] using MMSeq2^[ [66] ^]). […] The four helical structures of hSYN were hi ... || Figure 3 Proposed three‐dimensional structures of hSYN and BPP2. a) ColabFold‐predicted structure of hSYN. Disulfide bonds are highlighted in orange sticks. b) Proposed helices in the calculated structures. c) CD spectra of hSYN. Obs: Synthetic 2 (20 µM) was measured in 50 mM potassium phosphate (pH 7.0) at 25 °C. Calc: The ColabFold‐predicted structure was analyzed using the PDBMD2CD server. d) Calculated helicities (%) of each model by three methods based on the CD spectra. e) Superimposed structures of hSYN (blue white) and BPP2 (pale green). Key residues that interact between the helixes a ...

[5] = molecular target: human T-type voltage-gated calcium channel hCav3.2 (human) (UniProt O95180)
Sequence of UniProt O95180 (O95180 whole entry): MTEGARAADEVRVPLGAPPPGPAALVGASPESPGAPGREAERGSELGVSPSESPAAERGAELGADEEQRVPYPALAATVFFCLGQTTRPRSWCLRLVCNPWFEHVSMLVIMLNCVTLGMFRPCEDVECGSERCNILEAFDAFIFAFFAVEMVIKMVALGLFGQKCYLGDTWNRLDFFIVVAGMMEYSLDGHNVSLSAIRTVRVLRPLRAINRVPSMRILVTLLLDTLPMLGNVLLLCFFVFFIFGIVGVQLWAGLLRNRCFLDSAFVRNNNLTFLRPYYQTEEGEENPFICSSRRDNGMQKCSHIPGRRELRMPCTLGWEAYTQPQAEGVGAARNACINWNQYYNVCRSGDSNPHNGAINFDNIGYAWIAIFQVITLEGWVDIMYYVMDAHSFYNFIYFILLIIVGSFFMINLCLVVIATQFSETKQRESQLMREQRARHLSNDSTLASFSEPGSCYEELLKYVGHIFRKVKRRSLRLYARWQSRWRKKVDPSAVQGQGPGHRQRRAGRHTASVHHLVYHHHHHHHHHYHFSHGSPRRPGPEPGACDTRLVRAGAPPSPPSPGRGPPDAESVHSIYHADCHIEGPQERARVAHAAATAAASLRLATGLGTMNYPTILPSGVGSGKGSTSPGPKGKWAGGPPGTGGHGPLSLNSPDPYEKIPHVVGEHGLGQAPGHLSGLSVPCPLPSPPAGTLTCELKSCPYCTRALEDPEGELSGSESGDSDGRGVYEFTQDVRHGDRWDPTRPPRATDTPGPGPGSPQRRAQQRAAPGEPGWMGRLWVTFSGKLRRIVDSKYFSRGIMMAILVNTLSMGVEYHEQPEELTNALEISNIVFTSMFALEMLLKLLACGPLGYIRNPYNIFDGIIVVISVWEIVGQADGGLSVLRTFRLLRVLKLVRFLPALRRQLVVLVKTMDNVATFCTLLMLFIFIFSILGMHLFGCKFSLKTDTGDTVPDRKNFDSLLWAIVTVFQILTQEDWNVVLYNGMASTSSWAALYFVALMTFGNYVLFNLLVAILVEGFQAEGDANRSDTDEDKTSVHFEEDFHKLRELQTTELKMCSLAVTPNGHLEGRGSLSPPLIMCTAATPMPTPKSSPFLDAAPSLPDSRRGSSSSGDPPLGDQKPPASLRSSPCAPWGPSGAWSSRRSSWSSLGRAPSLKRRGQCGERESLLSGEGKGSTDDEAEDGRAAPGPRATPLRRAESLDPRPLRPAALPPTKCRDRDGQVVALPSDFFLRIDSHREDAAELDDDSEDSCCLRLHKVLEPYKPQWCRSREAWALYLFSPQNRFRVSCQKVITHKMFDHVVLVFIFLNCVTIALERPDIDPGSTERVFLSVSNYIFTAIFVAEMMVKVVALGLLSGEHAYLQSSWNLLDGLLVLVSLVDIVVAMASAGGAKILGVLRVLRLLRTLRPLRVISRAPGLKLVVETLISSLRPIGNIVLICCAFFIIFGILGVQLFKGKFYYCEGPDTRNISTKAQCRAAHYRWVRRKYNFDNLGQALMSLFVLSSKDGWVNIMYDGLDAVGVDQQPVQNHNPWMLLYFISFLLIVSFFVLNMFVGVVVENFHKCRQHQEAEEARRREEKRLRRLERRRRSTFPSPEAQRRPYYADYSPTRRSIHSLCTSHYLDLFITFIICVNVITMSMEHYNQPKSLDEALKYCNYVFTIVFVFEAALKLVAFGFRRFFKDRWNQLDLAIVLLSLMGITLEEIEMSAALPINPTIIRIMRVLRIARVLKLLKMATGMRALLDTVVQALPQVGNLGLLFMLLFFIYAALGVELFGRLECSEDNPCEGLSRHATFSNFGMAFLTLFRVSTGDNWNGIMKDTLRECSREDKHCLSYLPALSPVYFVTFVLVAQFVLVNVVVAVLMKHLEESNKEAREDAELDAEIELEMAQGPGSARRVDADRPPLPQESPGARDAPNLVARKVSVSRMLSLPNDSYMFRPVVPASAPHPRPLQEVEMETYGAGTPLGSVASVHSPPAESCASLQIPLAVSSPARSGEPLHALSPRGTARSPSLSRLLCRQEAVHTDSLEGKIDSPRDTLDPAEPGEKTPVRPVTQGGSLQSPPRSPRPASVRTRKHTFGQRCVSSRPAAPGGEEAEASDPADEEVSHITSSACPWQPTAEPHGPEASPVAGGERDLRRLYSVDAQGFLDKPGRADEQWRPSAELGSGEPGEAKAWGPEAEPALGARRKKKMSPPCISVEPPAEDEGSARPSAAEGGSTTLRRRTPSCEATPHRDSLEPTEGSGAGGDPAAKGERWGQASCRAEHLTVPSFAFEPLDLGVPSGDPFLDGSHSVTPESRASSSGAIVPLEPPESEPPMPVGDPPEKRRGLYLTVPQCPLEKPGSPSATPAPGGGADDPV

| Substance | effect on hCav2.2 (hCav2.2) | hyperpolarization shift in the activation of hCav3.2 [1] | Paralyzed/total numbers ([2]; i.p., 5.6 µg/g bodyweight) | paralytic effect on mealworms ([2]; synthetic BPP2, intraperitoneal, 5.6 µg g−1 body weight, immediately after administration) | proteolytic stability toward Glu-C [3] | proteolytic stability toward trypsin (trypsin) | Helicity, calculated, BestSel ([4]; BestSel server) [%] | Helicity, calculated, K2D3 ([4]; K2D3 server) [%] | Helicity, calculated, PDBMD2CD ([4]; PDBMD2CD server) [%] | hyperpolarization shift of hCav3.2 activation at 0.74 µM hSYN (2); whole-cell patch clamp on HEK293T cells expressing hCav3.2, n = 5 [5] [mV] |
| --- | --- | --- | --- | --- | --- | --- | --- | --- | --- | --- |
| Blarina paralytic peptide 2 [BPP2] | no significant effect on hCav2.2 | –11 mV | 3/3 ^b) | reliably induces paralysis and convulsions in mealworms | highly stable | highly stable | 48.9 | 54.9 | 55.7 | – |
| human synenkephalin N-terminal part [1–53] (hSYN), Type II disulfide bond connectivity, synthetic compound 2 (peptide) | – | – | – | – | – | – | – | – | – | -15 |
